Converted amounts (≈) assume the structure as drawn.
Columns and labels:
[1] = tested on: M. avium (MAC); assay: Broth dilution MIC against Mycobacterium avium complex isolates; type: cell-based; details: 168 h
Description: (§1) Testing of new drugs for activity against Mycobacterial infections is carried out in vitro and in vivo in well defined laboratory procedures which have been widely published. The method used to test for biological activity against growing Mycobacterium avium complex (MAC), Mycobacterium tuberculosis (MTB) and Mycobacterium kanasii (MK) are described by A. H. Gonzalez et al. in J. Antimicrob. Chemother. 1989, 24:19-22; S. Majumder and M. H. Cynamon, Amer. Soc. for Microbiology Mtgs, U-4, May 1992, abstract.
(§2) Activity in vitro was determined against clinical isolates of MAC, MTB and MK using a broth dilution method. Mycobacteria were grown for several days in 7H10 broth, ph 6.6, with 10% OADC enrichment and 0.05% Tween 80. Serial two-fold dilutions of antimicrobial drugs were prepared in 7H10 broth at 128 μg/ml and less. Cultures containing a final concentration of approximately 2.5×10^4 to 6.3×10^5 CFU/ml were incubated on a rotary shaker at 37° C. for 7 days and read where the minimum inhibitory concentration was defined as the MIC at the lowest concentration without visual turbidity. JPC7766 in these studies was compared to known active antimicrobial drugs Proguanil (PG), Cycloguanil (CG), Sulfamethazine (SM) and/or Dapsone (DDS).

[2] = tested on: M. kanasii (MK); assay: Broth dilution MIC against M. kanasii isolate; type: cell-based; details: 168 h
Description: as §1, §2

[3] = tested on: M. tuberculosis (MTB); assay: Broth dilution MIC against M. tuberculosis isolates; type: cell-based; details: Mycobacterium tuberculosis, 168 h
Description: as §1, §2

[4] = tested on: Pneumocystis carinii; assay: Prevention of Pneumocystis carinii infection in immunosuppressed rats; type: in vivo; details: 125 mg/kg daily
Description: In this method rats are immunosuppressed with high doses of glucocorticosteroids while being protected from bacterial infection by concurrent administration of the antibiotic tetracycline. In a standard evaluation animals are immunosuppressed with steroids and various doses of test compounds are administered for six weeks during which time unprotected animals will develop pneumocystis pneumonitis. The percentage of animals free of the disease represents the effectiveness of a selected dose of test drug.
A customary method to produce pneumocystis in the animals is to administer 2 mg of dexamethasone and 50 mg tetracycline hydrochloride per liter of drinking water. The test compounds are integrated in the food.

[5] = tested on: Pneumocystis carinii; details: 125 mg/kg; cited from earlier work
[6] = tested on: P. berghei; assay: P. berghei infection in mice, injected vs. oral doses, 50% cure (Table 2)
Text: Comparative tests in vivo in mice against Plasmodium have been carried out. […] Premature deaths of animals (earlier than five days post infection) are considered as indications of toxicity.
These tests systems are described in detail in publications by L. Rane and D. S. Rane, 9th Int. […] Trop. Med. Malaria. (1973) 1:281 (#406) and (2) T. S. Osdedne, P. B. Russell and L. Rane, J. Med. Chem. 1967. 10:431.
In this methodology, groups of 5 or 10 mice are infected with a standard inoculum of a blood-induced P. berghei infection and are treated with a single subcutaneous dose ([…]) of test drug suspended in peanut oil or a single oral dose of test drug suspended in hexamethyl cellulose and Tween. The animals are then observed for a maximum of thirty days. […] Animals surviving for thirty days are considered cured.

Compound CC1(C)N=C(N)N=C(N)N1c1ccc(Cl)cc1 [Cycloguanil] has an MIC ([1]; isolate MAC LPR) greater than 128 µg/mL, an MIC [2] of 64 µg/mL (≈ 254 µM) and an MIC ([3]; isolate MTB 311) of 64 µg/mL (≈ 254 µM). For the same compound, the MIC ([3]; H37RV, isolate MTB H37 Rv) was 64 µg/mL (≈ 254 µM).
With Nc1ccc(S(=O)(=O)c2ccc(N)cc2)cc1 [Dapsone] the Efficacy [4] was 100%, the “# infected” value ([4]; infected/treated) was 0/10 and the MIC ([1]; isolate MAC 101) was 16 µg/mL (≈ 64.4 µM). The MIC ([1]; isolate MAC FAR) was 64 µg/mL (≈ 258 µM), the MIC ([1]; isolate MAC LPR) was 32 µg/mL (≈ 129 µM) and the protection from pneumocystis [5] was “fully effective”.
For [H]/N=C(\N/C(=N/[H])Nc1ccc(Cl)cc1)NC(C)C [Proguanil], the Toxicity ([6]; oral (PO), @ >160 mg/kg) was “Toxic”, the “50% cures; oral PO ED-50” value ([6]; single oral dose) was “No Cures” and the “50% cure; injected SQ ED-50” value ([6]; subcutaneous, in peanut oil) was “NO CURES”. For the same compound, the MIC ([1]; isolate MAC 101) was greater than 128 µg/mL, the MIC ([1]; isolate MAC FAR) was 64 µg/mL (≈ 252 µM) and the MIC ([1]; isolate MAC LPR) was 128 µg/mL (≈ 504 µM).
Cc1cc(C)nc(NS(=O)(=O)c2ccc(N)cc2)n1 [Sulfamethazine] showed an MIC ([1]; isolate MAC 101) greater than 128 µg/mL, an MIC ([1]; isolate MAC FAR) of 16 µg/mL (≈ 57.5 µM) and an MIC ([1]; isolate MAC LPR) of 32 µg/mL (≈ 115 µM). The MIC [2] was 64 µg/mL (≈ 230 µM), the MIC ([3]; isolate MTB 311) was 64 µg/mL (≈ 230 µM) and the MIC ([3]; H37RV, isolate MTB H37 Rv) was 64 µg/mL (≈ 230 µM).
For CC1(C)N=C(N)N=C(N)N1OCCCOc1cc(Cl)c(Cl)cc1Cl [WR99210], the ED50 ([6]; Plasmodium berghei, in Mus musculus, sc, read-out: 50% cure, injected SQ ED-50) was 245 mg/kg and the Cures ([6]; oral (PO), @ 640 mg/kg) was “No Cures”.
